Experiment [1] concerns serpin gene in B. longum NCC 2705. Briefly: Sugar induction of serpin gene transcription in Biolector culture (qRT-PCR). To be noted: 180 min sugar induction at 0.1%, relative to growth in only MRSc (FIG. 1). The class given is cell-based. As for the experimental part: FIG. 1—Relative transcription level of serpin gene in B. longum NCC 2705 after 180 min sugar induction at a concentration of 0.1%. The bars indicate the relative amounts of serpin mRNAs for the specific samples comparing to that of growth in only MRSc. Black bars represent significant induction. The standard deviation was obtained from at least 2 different experiments (95% confidence interval).
BL NCC 2705 (B. longum strain CNCM I-2618) was grown in Biolector (growth conditions—anaerobic, 37° C., MRS+5 mM L-cysteine (MRSc).
48-well microtiter plate with pH sensor and dissolved oxygen (DO) sensor were used to culture the strains in Biolector (m2p-labs Aachen, Germany). It was continuously shaken to prevent bacteria aggregation and measurements were performed every 15 min. Plates were sealed with a gas permeable film and an anaerobe-chamber provides well-defined anaerobic gassing conditions. Fermentation parameters like biomass, pH and dissolved oxygen (DO) were monitored online throughout the entire growth using the BioLection HMI software. Growth parameters were:
The following carbohydrates were added to the cultures individually:
B. longum NCC 2705 was then further cultivated in the same conditions for 180 min, after which samples (500 μl) were collected and serpin mRNA levels measured. Every fermentation was performed at least in duplicate.
Total RNA isolation—500 μl of bacterial cultures were suspended in 1 ml of RNA protect bacteria reagent (Qiagen, Germany) and briefly centrifuged 10 min at 5000 g to harvest cells for total RNA extraction.
Total RNA was extracted using the RNeasy total RNA Mini kit (Qiagen, Germany, Ca. No. 74101) with protease K (Qiagen, Germany, Ca. No. 19131) and further treated using RNase-free DNase set (Qiagen, Germany, Ca. No. 79254). Total RNA was then eluted in 40 μl water. […]
mRNA fold expression analysis method—The Pfaffl method was used to calculate relative transcription changes (Pfaffl, 2012, Martin Filion, Hg., Quantitative real-time PCR in Applied Microbiology, 53-62) for which the equation is shown in Equation 1: […]
Background: In qPCR the cycle at which signal appears reflects the starting amount.

The subject of another experiment is BL NCC 2705 serpin. Description: Lactose dose response in 10 L fermenter, serpin mRNA fold induction. The class given is cell-based, B. longum. To be noted: addition of 0.1% lactose, among 0.05%, 1%, 2% and 2.75%, glucose added to 5.5% total sugar, base 8 h culture (FIG. 2). The protocol: FIG. 2—Serpin mRNA level of B. longum NCC 2705 fermented in different growth medium after 8 h, 12 h and 16 h. Different proportions of glucose was replaced by lactose and fructose as shown in the y-axis and the total amount of sugar percentage was kept stable at 5.5%. The values were calculated based on B. longum NCC 2705 growth after 8 h in 5.5% glucose. Black bars represent significant induction. In order to optimize the effect of lactose on induction of BL NCC 2705 serpin, a dose response was performed. The fermentation was performed in a 10 L Biostar B Plus fermenter with MRSc medium, supplemented with 0.05% cysteine as base, and different concentration of lactose (0.05%, 0.1%, 1%, 2% and 2.75%) were added to the medium. Glucose was supplemented to the different recipes to reach a final total amount of 5.5% of total sugar. Serpin mRNA fold induction was calculated using the 8 h MRSc grown BL NCC 2705 culture as a base (FIG. 2).

For a further experiment, the system named is elastases and proteinase. To be noted: cited from earlier work.
For another experiment, the target named is T1, transglutaminase 2 (TG2) (Homo sapiens, UniProt P21980).
T1 sequence (P21980 1-687): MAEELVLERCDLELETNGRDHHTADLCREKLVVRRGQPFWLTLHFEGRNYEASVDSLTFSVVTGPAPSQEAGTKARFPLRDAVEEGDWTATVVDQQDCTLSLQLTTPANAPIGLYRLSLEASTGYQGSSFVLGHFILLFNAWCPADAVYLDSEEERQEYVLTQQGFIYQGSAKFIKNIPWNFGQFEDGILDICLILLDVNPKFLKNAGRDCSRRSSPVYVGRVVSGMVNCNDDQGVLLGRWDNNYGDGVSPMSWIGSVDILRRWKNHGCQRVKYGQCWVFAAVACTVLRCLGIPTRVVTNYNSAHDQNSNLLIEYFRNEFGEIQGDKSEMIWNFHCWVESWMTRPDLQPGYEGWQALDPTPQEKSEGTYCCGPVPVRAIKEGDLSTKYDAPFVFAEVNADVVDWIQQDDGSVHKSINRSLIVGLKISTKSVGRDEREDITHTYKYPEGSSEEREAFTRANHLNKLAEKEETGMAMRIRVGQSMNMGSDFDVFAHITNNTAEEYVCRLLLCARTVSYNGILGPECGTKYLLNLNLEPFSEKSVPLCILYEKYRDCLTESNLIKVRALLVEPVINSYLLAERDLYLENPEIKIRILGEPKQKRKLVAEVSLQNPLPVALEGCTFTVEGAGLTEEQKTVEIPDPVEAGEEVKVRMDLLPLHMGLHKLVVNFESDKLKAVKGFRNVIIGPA
To be noted: in vitro; inhibits deamidation of the 33-mer gliadin peptide; cited from earlier work.

In experiment [2] the test system is mouse model of gluten sensitivity. To be noted: elafin delivered by recombinant Lactococcus lactis; cited from earlier work.

Where no end group is shown, it is not given here.

Regarding `O=C(CO)[C@@H](O)[C@H](O)[C@H](O)CO` [fructose, Fructose], the “serpin mRNA levels of B. longum NCC 2705” value in experiment [1] is listed as “increase”. Turning to `OC[C@H]1O[C@@H](O[C@H]2[C@H](O)[C@@H](O)C(O)O[C@@H]2CO)[C@H](O)[C@@H](O)[C@H]1O` (stereo partly shown) [lactose, Lactose], the “serpin mRNA level at end of fermentation (16 h)” value in the experiment with BL NCC 2705 serpin is recorded as “highest”. Besides, the “serpin mRNA levels of B. longum NCC 2705” value in experiment [1] is “increase”. Turning to `OC[C@H]1O[C@H](OC[C@H]2O[C@H](O[C@]3(CO)O[C@H](CO)[C@@H](O)[C@@H]3O)[C@H](O)[C@@H](O)[C@@H]2O)[C@H](O)[C@@H](O)[C@H]1O` [raffinose, Raffinose], the “serpin mRNA levels of B. longum NCC 2705” value in experiment [1] is listed as “increase”. On to “elafin: human serine protease inhibitor (AQEPVKGPVSTKPGSCPIILIRCAMLNPPNRCLKDTDCPGIKKCCEGSCGMACFVPQ; ends and bridges not checked; cysteine pairing not given here; UniProt P19957 61-117, looked up)”, for which the “inhibitory capacity against various forms of elastases and proteinase” value with elastases and proteinase is “potent inhibitory capacity”. The “inhibition of transglutaminase 2 (TG2)” value with transglutaminase 2 (TG2) was “moderately inhibits”. Moreover, the “gluten-induced pathology and intestine inflammation” value in experiment [2] is “reduce gluten-induced pathology and normalise intestine inflammation”.

The record behind these values is US11590181B2, “Serpin production” (SOCIETE DES PRODUITS NESTLE S.A., priority 2017, dated 2023).
